Data published in patent US20230134228A1, “SYNERGISTIC HERBAL COMPOSITION AS A BROAD-SPECTRUM PROPHYLACTIC MAJOR AND METHOD TO PREPARE THE SAME” (priority 2020, published 2023).

What was measured:
Assay type in all cases: biochemical
[1] = Anti-oxidant assay (DPPH radical scavenging activity)
[2] = Hydroxyl radical scavenging activity; conditions: for TBARS Inhibition (%): Table 6 (hydroxyl radical scavenging)
[3] = Lipid peroxidation (TBARS) inhibition assay; conditions: for TBARS Inhibition (%): Table 7

SMILES: O=C1O[C@H]([C@@H](O)CO)C(O)=C1O [Ascorbic Acid, ascorbic acid]
- DPPH radical inhibition (%) ([1]; Conc. 3.125 μl/ml): 29.93%
- DPPH radical inhibition (%) ([1]; Conc. 6.25 μl/ml): 52.42%
- DPPH radical inhibition (%) ([1]; Conc. 12.5 μl/ml): 71.28%
- DPPH radical inhibition (%) ([1]; Conc. 25 μl/ml): 87.88%
- DPPH radical inhibition (%) ([1]; Conc. 50 μl/ml): 92.05%
- DPPH radical inhibition (%) ([1]; Conc. 100 μl/ml): 95.01%
- DPPH radical inhibition (%) ([1]; Conc. 200 μl/ml): 29.93%
- Inhibitory concentration [IC50], DPPH ([1]; from graph of % inhibition vs concentration): 17.30 µg/mL
- Inhibitory concentration [IC50], hydroxyl radical [2]: 30.83 µg/mL
- TBARS Inhibition (%) ([2]; Conc. 6.25 μl/ml): 35.27%
- TBARS Inhibition (%) ([2]; Conc. 12.5 μl/ml): 42.80%
- TBARS Inhibition (%) ([2]; Conc. 25 μl/ml): 53.76%
- TBARS Inhibition (%) ([2]; Conc. 50 μl/ml): 64.72%
- TBARS Inhibition (%) ([2]; Conc. 100 μl/ml): 64.43%
- TBARS Inhibition (%) ([2]; Conc. 200 μl/ml): 76.71%
- Inhibitory concentration [IC50], lipid peroxidation (TBARS) [3]: 20.32 µg/mL
- TBARS Inhibition (%) ([3]; Conc. 6.25 μl/ml): 36.0%
- TBARS Inhibition (%) ([3]; Conc. 12.5 μl/ml): 47.69%
- TBARS Inhibition (%) ([3]; Conc. 25 μl/ml): 54.76%
- TBARS Inhibition (%) ([3]; Conc. 50 μl/ml): 62.15%
- TBARS Inhibition (%) ([3]; Conc. 100 μl/ml): 68.92%
- TBARS Inhibition (%) ([3]; Conc. 200 μl/ml): 72.61%
